Assay results: ChEMBL document CHEMBL5338760, “Ψ and χ Angle Constrains at the C-Terminus Trp Position of the Melanotropin Tetrapeptide Ac-His-d-Phe-Arg-Trp-NH2 Lead to Potent and Selective Agonists at hMC1R and hMC4R” (J Med Chem, 2023); call rule not given here
Values belong to the compound of their own block, whether it stands above or below them.

Tests used:
[1] = target: T1, Melanocyte-stimulating hormone receptor (Homo sapiens, UniProt Q01726); experiment: Displacement of [I125] NDP-alpha-MSH from human MC1R stably overexpressing in HEK293 cells in presence of [I125] labeled NDP-alpha-MSH treated for 40 mins measured by microbeta 2 microplate counter analysis; assay type: cell-based
Target sequence in this assay (Q01726 whole entry): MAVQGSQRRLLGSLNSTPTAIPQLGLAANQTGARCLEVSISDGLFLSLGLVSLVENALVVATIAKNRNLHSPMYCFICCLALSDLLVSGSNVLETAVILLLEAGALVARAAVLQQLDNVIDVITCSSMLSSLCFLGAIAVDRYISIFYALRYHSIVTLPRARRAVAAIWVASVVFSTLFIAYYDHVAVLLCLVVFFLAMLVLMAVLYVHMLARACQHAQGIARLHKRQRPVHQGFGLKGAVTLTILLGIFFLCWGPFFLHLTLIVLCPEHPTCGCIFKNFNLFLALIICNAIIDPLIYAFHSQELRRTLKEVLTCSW

[2] = target: T1, Melanocyte-stimulating hormone receptor; experiment: Displacement of [I125] NDP-alpha-MSH from human MC1R stably overexpressing in HEK293 cells in presence of [I125] labeled NDP-alpha-MSH treated at 10 uM for 40 mins measured by microbeta 2 microplate counter analysis relative to control; assay type: cell-based
Target sequence in this assay (Q01726 whole entry, looked up): as the sequence (Q01726 whole entry) above

[3] = target: T2, Melanocortin receptor 3 (Homo sapiens, UniProt P41968); experiment: Displacement of [I125] NDP-alpha-MSH from human MC3R stably overexpressing in HEK293 cells in presence of [I125] labeled NDP-alpha-MSH treated for 40 mins measured by microbeta 2 microplate counter analysis; assay type: cell-based
T2 sequence (P41968 whole entry): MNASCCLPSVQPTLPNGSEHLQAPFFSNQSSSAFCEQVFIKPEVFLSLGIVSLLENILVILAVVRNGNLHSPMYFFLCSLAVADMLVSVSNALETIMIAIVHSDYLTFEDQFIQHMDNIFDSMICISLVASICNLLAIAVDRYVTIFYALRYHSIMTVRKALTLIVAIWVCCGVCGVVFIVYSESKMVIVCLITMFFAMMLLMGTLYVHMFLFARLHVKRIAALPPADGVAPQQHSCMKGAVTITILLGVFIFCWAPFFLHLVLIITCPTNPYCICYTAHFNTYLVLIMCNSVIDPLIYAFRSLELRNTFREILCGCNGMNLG

[4] = target: T1, Melanocyte-stimulating hormone receptor; experiment: Agonist activity at human MC1R stably overexpressing in HEK293 cells assessed as intracellular acumulation of cAMP level incubated for 30 mins measured by microbeta 2 microplate counter analysis; assay type: functional, cell-based
Target sequence in this assay (Q01726 whole entry): as the sequence (Q01726 whole entry) above

[5] = target: T1, Melanocyte-stimulating hormone receptor; experiment: Agonist activity at human MC1R stably overexpressing in HEK293 cells assessed as intracellular acumulation of cAMP level incubated at 10 uM for 30 mins measured by microbeta 2 microplate counter analysis relative to MT-II; assay type: functional, cell-based; conditions: filed as agonist
Target sequence in this assay (Q01726 whole entry, looked up): as the sequence (Q01726 whole entry) above

[6] = target: T2, Melanocortin receptor 3; experiment: Agonist activity at human MC3R stably overexpressing in HEK293 cells assessed as intracellular acumulation of cAMP level incubated for 30 mins measured by microbeta 2 microplate counter analysis; assay type: functional, cell-based
[7] = target: T3, Melanocortin receptor 4 (Homo sapiens, UniProt P32245); experiment: Displacement of [I125] NDP-alpha-MSH from human MC4R stably overexpressing in HEK293 cells in presence of [I125] labeled NDP-alpha-MSH treated for 40 mins measured by microbeta 2 microplate counter analysis; assay type: cell-based
T3 sequence (P32245 whole entry): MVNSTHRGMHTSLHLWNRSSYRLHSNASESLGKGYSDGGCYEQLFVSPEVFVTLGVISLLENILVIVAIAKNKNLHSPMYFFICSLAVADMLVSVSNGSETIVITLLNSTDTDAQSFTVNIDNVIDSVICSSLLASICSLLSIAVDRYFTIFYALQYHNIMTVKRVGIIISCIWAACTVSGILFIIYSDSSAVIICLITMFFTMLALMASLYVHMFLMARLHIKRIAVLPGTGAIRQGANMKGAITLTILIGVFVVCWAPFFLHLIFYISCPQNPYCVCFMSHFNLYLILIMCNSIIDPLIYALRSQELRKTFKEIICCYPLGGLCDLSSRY

[8] = target: T3, Melanocortin receptor 4; experiment: Agonist activity at human MC4R stably overexpressing in HEK293 cells assessed as intracellular acumulation of cAMP level incubated for 30 mins measured by microbeta 2 microplate counter analysis; assay type: functional, cell-based
[9] = target: T4, Melanocortin receptor 5 (Homo sapiens, UniProt P33032); experiment: Displacement of [I125] NDP-alpha-MSH from human MC5R stably overexpressing in HEK293 cells in presence of [I125] labeled NDP-alpha-MSH treated for 40 mins measured by microbeta 2 microplate counter analysis; assay type: cell-based
T4 sequence (P33032 whole entry): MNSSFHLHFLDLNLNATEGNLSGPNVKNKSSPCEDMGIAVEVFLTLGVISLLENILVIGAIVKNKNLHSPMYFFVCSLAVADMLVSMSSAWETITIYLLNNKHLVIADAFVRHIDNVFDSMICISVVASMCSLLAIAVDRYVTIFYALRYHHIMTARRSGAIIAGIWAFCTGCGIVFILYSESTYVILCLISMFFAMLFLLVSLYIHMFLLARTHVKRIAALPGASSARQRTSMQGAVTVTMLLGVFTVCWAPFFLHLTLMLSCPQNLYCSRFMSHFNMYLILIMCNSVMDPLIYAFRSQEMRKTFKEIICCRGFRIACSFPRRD

[10] = target: T4, Melanocortin receptor 5; experiment: Agonist activity at human MC5R stably overexpressing in HEK293 cells assessed as intracellular acumulation of cAMP level incubated for 30 mins measured by microbeta 2 microplate counter analysis; assay type: functional, cell-based
[11] = target: T2, Melanocortin receptor 3; experiment: Displacement of [I125] NDP-alpha-MSH from human MC3R stably overexpressing in HEK293 cells in presence of [I125] labeled NDP-alpha-MSH treated at 10 uM for 40 mins measured by microbeta 2 microplate counter analysis; assay type: cell-based
[12] = target: T3, Melanocortin receptor 4; experiment: Displacement of [I125] NDP-alpha-MSH from human MC4R stably overexpressing in HEK293 cells in presence of [I125] labeled NDP-alpha-MSH treated at 10 uM for 40 mins measured by microbeta 2 microplate counter analysis; assay type: cell-based
[13] = target: T2, Melanocortin receptor 3; experiment: Agonist activity at human MC3R stably overexpressing in HEK293 cells assessed as intracellular acumulation of cAMP level incubated at 10 uM for 30 mins measured by microbeta 2 microplate counter analysis relative to MT-II; assay type: functional, cell-based; conditions: filed as agonist
[14] = target: T4, Melanocortin receptor 5; experiment: Displacement of [I125] NDP-alpha-MSH from human MC5R stably overexpressing in HEK293 cells in presence of [I125] labeled NDP-alpha-MSH treated at 10 uM for 40 mins measured by microbeta 2 microplate counter analysis relative to control; assay type: cell-based
[15] = target: T4, Melanocortin receptor 5; experiment: Agonist activity at human MC5R stably overexpressing in HEK293 cells assessed as intracellular acumulation of cAMP level incubated at 10 uM for 30 mins measured by microbeta 2 microplate counter analysis relative to MT-II; assay type: functional, cell-based; conditions: filed as agonist
[16] = target: T1, Melanocyte-stimulating hormone receptor; experiment: Displacement of [I125] NDP-alpha-MSH from human MC1R stably overexpressing in HEK293 cells in presence of [I125] labeled NDP-alpha-MSH treated at 10 uM for 40 mins measured by microbeta 2 microplate counter analysis; assay type: cell-based
Target sequence in this assay (Q01726 whole entry): as the sequence (Q01726 whole entry) above

[17] = target: T4, Melanocortin receptor 5; experiment: Displacement of [I125] NDP-alpha-MSH from human MC5R stably overexpressing in HEK293 cells in presence of [I125] labeled NDP-alpha-MSH treated at 10 uM for 40 mins measured by microbeta 2 microplate counter analysis; assay type: cell-based
[18] = target: T2, Melanocortin receptor 3; experiment: Displacement of [I125] NDP-alpha-MSH from human MC3R stably overexpressing in HEK293 cells in presence of [I125] labeled NDP-alpha-MSH treated at 10 uM for 40 mins measured by microbeta 2 microplate counter analysis relative to control; assay type: cell-based; conditions: filed as agonist

SMILES: CC(=O)N[C@@H](Cc1c[nH]cn1)C(=O)N[C@H](Cc1ccc(C(F)(F)F)cc1)C(=O)N[C@@H](CCCNC(=N)N)C(=O)N[C@H]1Cc2c([nH]c3ccccc23)CNC1=O
- IC50 [1]: 81 nM
- Activity [2]: 35%
- IC50 [3]: > 1000 nM
- EC50 ([4]; read-out: EC50): 37 nM
- Emax [5]: 100%
- EC50 ([6]; hek293): Not Active
- IC50 [7]: 2.5 nM
- EC50 ([8]; read-out: EC50): 4.1 nM
- IC50 [9]: 40 nM
- EC50 ([10]; hek293): Not Active

SMILES: CC(=O)N[C@@H](Cc1cnc[nH]1)C(=O)N[C@H](Cc1ccccc1)C(=O)N[C@@H](CCCNC(=N)N)C(=O)N[C@@H](Cc1c[nH]c2ccccc12)C(N)=O
- Emax [5]: 100%
- Emax [13]: 100%
- Activity ([14]; filed as agonist): 100%
- Emax [15]: 63%

SMILES: CCCC[C@H](NC(C)=N)C(=O)N[C@@H]1NCCCC[C@@H](C(N)=O)NC(=O)[C@H](Cc2c[nH]c3ccccc23)NC(=O)[C@H](CCCNC(=N)N)NC(=O)[C@H](Cc2ccccc2)NC(=O)[C@H](Cc2cnc[nH]2)NC1=O
- IC50 [1]: 1 nM
- Activity ([2]; filed as agonist): 100%
- IC50 [3]: 2 nM
- EC50 ([4]; read-out: EC50): 1 nM
- Activity [18]: 100%
- EC50 ([8]; read-out: EC50): 2 nM
- IC50 [9]: 4 nM
- Activity ([14]; filed as agonist): 100%
- EC50 ([10]; read-out: EC50): 6 nM

SMILES: CC(=O)N[C@@H](Cc1c[nH]cn1)C(=O)N[C@H](Cc1ccccc1)C(=O)N[C@@H](CCCNC(=N)N)C(=O)N[C@H]1Cc2ccccc2CNC1=O
- IC50 [16]: Not Active
- EC50 ([4]; hek293): Not Active
- IC50 [11]: Not Active
- EC50 ([6]; hek293): Not Active
- IC50 [12]: Not Active
- EC50 ([8]; hek293): Not Active
- IC50 [17]: Not Active
- EC50 ([10]; hek293): Not Active

SMILES: CC(=O)N[C@@H](Cc1c[nH]cn1)C(=O)N[C@H](Cc1ccccc1)C(=O)N[C@@H](CCCNC(=N)N)C(=O)N[C@H]1Cc2c([nH]c3ccccc23)CNC1=O
- IC50 [1]: 34 nM
- Activity ([2]; filed as agonist): 83%
- IC50 [3]: 165 nM
- EC50 ([4]; read-out: EC50): 11.2 nM
- Emax [5]: 100%
- Activity [18]: 61%
- EC50 ([6]; read-out: EC50): 166 nM
- Emax [13]: 66%
- IC50 [7]: 166 nM
- EC50 ([8]; read-out: EC50): 171 nM
- IC50 [9]: > 1000 nM
- Activity [14]: 39%
- EC50 ([10]; read-out: EC50): 165 nM
- Emax [15]: 61%

Second part, the compound after the results:

- IC50 [1]: 9.6 nM
- Activity [2]: 21%
- EC50 ([4]; read-out: EC50): 136 nM
- Emax [5]: 96%
- IC50 [11]: Not Active
- EC50 ([6]; read-out: EC50): > 1000 nM
- IC50 [12]: Not Active
- EC50 ([8]; hek293): Not Active
- IC50 [9]: > 1000 nM
- EC50 ([10]; hek293): Not Active
SMILES: CC(=O)N[C@@H](Cc1c[nH]cn1)C(=O)N[C@H](Cc1ccccc1)C(=O)N[C@@H](CCCNC(=N)N)C(=O)N[C@H]1Cn2nncc2CNC1=O

- IC50 [16]: Not Active
- EC50 ([4]; hek293): Not Active
- IC50 [11]: Not Active
- EC50 ([6]; hek293): Not Active
- IC50 [12]: Not Active
- EC50 ([8]; hek293): Not Active
- IC50 [17]: Not Active
- EC50 ([10]; hek293): Not Active
SMILES: CCCC[C@H](NC(=O)[C@@H](Cc1ccccc1)NC(=O)[C@H](Cc1c[nH]cn1)NC(C)=O)C(=O)N[C@H]1Cn2nncc2CNC1=O

- IC50 [16]: Not Active
- EC50 ([4]; hek293): Not Active
- IC50 [11]: Not Active
- EC50 ([6]; hek293): Not Active
- IC50 [12]: Not Active
- EC50 ([8]; hek293): Not Active
- IC50 [17]: Not Active
- EC50 ([10]; hek293): Not Active
SMILES: CCCC[C@H](NC(=O)[C@@H](Cc1ccccc1)NC(=O)[C@H](Cc1c[nH]cn1)NC(C)=O)C(=O)N[C@H]1Cc2ccccc2CNC1=O

- IC50 [16]: Not Active
- EC50 ([4]; read-out: EC50): > 1000 nM
- IC50 [11]: Not Active
- EC50 ([6]; read-out: EC50): > 1000 nM
- IC50 [12]: Not Active
- EC50 ([8]; read-out: EC50): > 1000 nM
- IC50 [17]: Not Active
- EC50 ([10]; hek293): Not Active
SMILES: CCCC[C@H](NC(=O)[C@@H](Cc1ccccc1)NC(=O)[C@H](Cc1c[nH]cn1)NC(C)=O)C(=O)N[C@H]1Cc2c([nH]c3ccccc23)CNC1=O
